Measurements from ChEMBL document CHEMBL1128951, “6-(4-Phenyl-benzyloxy-methyl) guvacine. Synthesis, GABA uptake inhibitor and muscarinic properties” (Bioorg Med Chem Lett, 1996).

How the values were obtained:
[1] = In vitro inhibitory activity against gamma-aminobutyric acid (GABA) uptake; format: functional
[2] = molecular target: T1, Muscarinic acetylcholine receptor M1 (Homo sapiens) (UniProt P11229); assay: Compound was evaluated for binding affinity by displacement of [3H]pirenzepine from muscarinic M1 receptor at concentration 100 nM.
T1 sequence (whole entry): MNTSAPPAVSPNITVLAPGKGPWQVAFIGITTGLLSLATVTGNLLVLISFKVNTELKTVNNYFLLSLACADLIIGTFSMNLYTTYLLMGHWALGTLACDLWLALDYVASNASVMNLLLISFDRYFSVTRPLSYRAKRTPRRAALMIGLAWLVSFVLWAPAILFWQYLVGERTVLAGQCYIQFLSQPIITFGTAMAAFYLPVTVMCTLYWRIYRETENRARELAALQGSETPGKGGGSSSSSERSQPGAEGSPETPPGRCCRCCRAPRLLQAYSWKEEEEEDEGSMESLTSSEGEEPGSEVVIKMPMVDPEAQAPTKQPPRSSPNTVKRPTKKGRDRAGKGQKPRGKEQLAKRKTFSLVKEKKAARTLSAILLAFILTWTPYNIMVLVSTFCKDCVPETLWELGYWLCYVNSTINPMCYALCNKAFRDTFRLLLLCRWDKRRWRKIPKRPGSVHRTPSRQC

[3] = molecular target: T2, Muscarinic acetylcholine receptor M2 (Homo sapiens) (UniProt P08172); assay: Compound was evaluated for binding affinity by displacement of [3H]NMS from muscarinic M2 receptor at concentration 100 nM.
T2 sequence (whole entry): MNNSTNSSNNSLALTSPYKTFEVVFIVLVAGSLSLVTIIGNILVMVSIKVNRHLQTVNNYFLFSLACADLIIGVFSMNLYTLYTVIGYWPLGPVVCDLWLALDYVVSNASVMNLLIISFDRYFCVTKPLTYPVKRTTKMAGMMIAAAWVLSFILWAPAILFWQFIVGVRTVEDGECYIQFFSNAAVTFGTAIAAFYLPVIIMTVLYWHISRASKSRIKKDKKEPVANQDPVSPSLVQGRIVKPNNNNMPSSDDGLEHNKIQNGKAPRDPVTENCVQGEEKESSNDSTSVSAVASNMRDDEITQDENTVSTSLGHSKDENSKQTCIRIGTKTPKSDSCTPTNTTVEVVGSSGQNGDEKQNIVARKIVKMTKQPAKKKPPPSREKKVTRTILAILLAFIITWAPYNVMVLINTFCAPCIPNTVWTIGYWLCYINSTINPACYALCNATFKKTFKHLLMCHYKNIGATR

Row | Structure (SMILES) | IC50 [1] | inhibition [2] | inhibition [3]
1 | O=C(O)C1=CCC(CCC(c2ccccc2)c2ccccc2)NC1 (stereo unspecified) | 100 nM |  | 
2 | CCOC(=O)C1=CCC(COCc2ccc(-c3ccccc3)cc2)NC1 (stereo unspecified) |  | 12% | 14%
3 | O=C(O)C1=CCCN(CCC=C(c2ccccc2)c2ccccc2)C1 | 210 nM |  | 
4 | O=C(O)C1=CCC(COCc2ccc(-c3ccccc3)cc2)NC1 (stereo unspecified) |  | 57% | 59%
